{"source": "ChEMBL document CHEMBL5149971", "about": "“Pyridones in drug discovery: Recent advances” (Bioorg Med Chem Lett, 2021)", "key": {"rhinovirus B14 [1]": {"system": "rhinovirus B14", "experiment": "Antiviral activity against Human rhinovirus 14 infected in H1-HeLa cells assessed as reduction in viral infection measured after 2 days by XTT dye reduction method", "format": "functional, organism-based", "details": "Rhinovirus B, 48 h"}, "rhinovirus B14 [2]": {"system": "rhinovirus B14", "experiment": "Antiviral activity against Human rhinovirus 14 infected in H1-HeLa cells assessed as reduction in viral infection measured after 5 days by XTT dye reduction method", "format": "functional, organism-based", "details": "Rhinovirus B, 120 h"}, "[3]": {"experiment": "Inhibition of MEK (unknown origin) in the presence of [gamma33P]ATP by scintillation counting method", "design": "species or system Homo sapiens"}, "[4]": {"experiment": "Oral bioavailability in hamster", "format": "ADME, organism-based, Mesocricetus auratus", "details": "in vivo"}, "Neutrophil elastase": {"molecular_target": "T1, Neutrophil elastase (Homo sapiens, UniProt P08246)", "T1 sequence (P08246 whole entry)": "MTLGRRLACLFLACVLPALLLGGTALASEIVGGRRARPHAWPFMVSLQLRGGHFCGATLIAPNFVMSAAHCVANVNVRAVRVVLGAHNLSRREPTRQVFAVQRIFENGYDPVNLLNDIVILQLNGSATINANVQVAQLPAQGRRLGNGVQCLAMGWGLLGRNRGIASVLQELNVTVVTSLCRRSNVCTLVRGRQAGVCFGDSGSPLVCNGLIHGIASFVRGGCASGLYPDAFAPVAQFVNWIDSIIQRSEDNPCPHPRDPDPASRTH", "experiment": "Inhibition of human neutrophil elastase using methoxysuccinyl-Ala-Ala-Pro-Val-pnitroanilide as substrate by spectrophotometric analysis"}}, "data": [{"smiles": "CCOC(=O)/C=C/[C@H](CCC(N)=O)NC(=O)[C@H](Cc1ccccc1)NC(=O)[C@H](CC(C)C)NC(=O)OCc1ccccc1", "values": [{"measurement": "EC50", "setting": "rhinovirus B14 [1]", "result": 540, "unit": "nM"}]}, {"smiles": "CCOC(=O)/C=C/[C@H](C[C@@H]1CCNC1=O)NC(=O)[C@@H](CC(=O)[C@@H](NC(=O)c1cc(C)on1)C(C)C)Cc1ccc(F)cc1", "values": [{"measurement": "EC50", "setting": "rhinovirus B14 [2]", "result": 13, "unit": "nM"}]}, {"smiles": "CC(C)(C)c1nc2c3ccc(F)cc3c3c(=O)[nH]ccc3c2[nH]1", "values": [{"measurement": "IC50", "setting": "[3]", "result": 160, "unit": "nM"}]}, {"smiles": "CC(C)C(NC(=O)Cn1c(-c2ccc(F)cc2)ncc(N)c1=O)C(=O)C(F)(F)F", "note": "(stereo not given)", "values": [{"measurement": "bioavailability", "setting": "[4]", "result": 77, "unit": "%"}]}, {"smiles": "CC(C)C(NC(=O)[C@@H]1CCCN1C(=O)[C@@H](NC(=O)c1ccc(C(=O)NS(=O)(=O)c2ccc(Cl)cc2)cc1)C(C)C)C(N)=O", "note": "(stereo not given in full)", "values": [{"measurement": "Ki", "setting": "Neutrophil elastase", "result": 0.5, "unit": "nM"}]}]}
